Laboratory results published in the supplement of paper PMC11451515.

Key:
Settings in all cases: 48 h
NOMO1 [1] = test: cell viability relative to DMSO control; higher = less cytotoxic
Procedure, shortened: (§1)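 Before seeding, each leukemia line was adapted for at least four passages in each medium. NOMO1 or SEM cells (500 cells/well) and P12-Ichikawa cells (1000 cells/well) went into 1536-well plates at 5 μl, then received library compounds in DMSO by pin dosing across 11 threefold concentrations, 47 μM to 0.79 nM. Readout was CellTiter-Glo One luminescence after 48 h at 37°C, and viability is given as a per-plate percentage of DMSO wells, with cell-free wells as background.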

P12-Ichikawa [2] = test: as above
Procedure, shortened: as §1

SEM cells [3] = test: as above
Procedure, shortened: as §1

NOMO1 [4] = test: AUC of viability dose-response curve (% viability x log10 dose units); higher = less sensitive
Procedure, shortened: (§2)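 Leukemia cells adapted to each medium were seeded in 1536-well plates (500 or 1000 cells/well) and given library compounds in DMSO for 48 h at 37°C. The 11 threefold doses spanned 47 μM to 0.79 nM, and CellTiter-Glo One luminescence was normalised per plate to DMSO and cell-free wells before four-parameter log-logistic fitting on log10 dose. Area under the curve was integrated with the trapezoidal rule, scaling curves above full viability and removing curves that failed quality control.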

P12-Ichikawa [5] = test: as above
Procedure, shortened: as §2

SEM cells [6] = test: as above
Procedure, shortened: as §2

C[C@@H]1CC[C@@]2(CC[C@]3(C)\C(=C/C[C@@H]4[C@@]5(C)C[C@@H](O)[C@H](O)[C@@](C)(CO)[C@@H]5CC[C@@]34C)[C@@H]2[C@H]1C)C(O)=O
cell viability [%]
Settings | NOMO1 [1] | P12-Ichikawa [2] | SEM cells [3]
HPLM + 10% dialyzed FBS, 0.000781 µM | 120 | 109 | 65.5
HPLM + 10% dialyzed FBS, 0.00234 µM | 127 | 113 | 75.1
HPLM + 10% dialyzed FBS, 0.00702 µM | 121 | 108 | 80.4
HPLM + 10% dialyzed FBS, 0.0211 µM | 109 | 122 | 86.6
HPLM + 10% dialyzed FBS, 0.0632 µM | 109 | 121 | 76.5
HPLM + 10% dialyzed FBS, 0.19 µM | 123 | 120 | 90.6
HPLM + 10% dialyzed FBS, 0.569 µM | 123 | 116 | 99.1
HPLM + 10% dialyzed FBS, 1.71 µM | 106 | 116 | 91.9
HPLM + 10% dialyzed FBS, 5.12 µM | 138 | 122 | 96.5
HPLM + 10% dialyzed FBS, 15.4 µM | 120 | 121 | 110
HPLM + 10% dialyzed FBS, 46.1 µM | 130 | 112 | 115
RPMI 5 mM glucose + 10% FBS, 0.000781 µM | 104 | 116 | 114
RPMI 5 mM glucose + 10% FBS, 0.00234 µM | 99.9 | 123 | 110
RPMI 5 mM glucose + 10% FBS, 0.00702 µM | 117 | 113 | 107
RPMI 5 mM glucose + 10% FBS, 0.0211 µM | 107 | 116 | 120
RPMI 5 mM glucose + 10% FBS, 0.0632 µM | 101 | 119 | 115
RPMI 5 mM glucose + 10% FBS, 0.19 µM | 104 | 121 | 106
RPMI 5 mM glucose + 10% FBS, 0.569 µM | 110 | 126 | 128
RPMI 5 mM glucose + 10% FBS, 1.71 µM | 114 | 131 | 127
RPMI 5 mM glucose + 10% FBS, 5.12 µM | 109 | 123 | 110
RPMI 5 mM glucose + 10% FBS, 15.4 µM | 119 | 119 | 120
RPMI 5 mM glucose + 10% FBS, 46.1 µM | 117 | 110 | 7.07
RPMI 5 mM glucose + 10% dialyzed FBS, 0.000781 µM | 104 | 109 | 87.9
RPMI 5 mM glucose + 10% dialyzed FBS, 0.00234 µM | 119 | 113 | 93.8
RPMI 5 mM glucose + 10% dialyzed FBS, 0.00702 µM | 120 | 114 | 105
RPMI 5 mM glucose + 10% dialyzed FBS, 0.0211 µM | 115 | 109 | 96
RPMI 5 mM glucose + 10% dialyzed FBS, 0.0632 µM | 122 | 121 | 103
RPMI 5 mM glucose + 10% dialyzed FBS, 0.19 µM | 111 | 118 | 76.4
RPMI 5 mM glucose + 10% dialyzed FBS, 0.569 µM | 125 | 128 | 66.6
RPMI 5 mM glucose + 10% dialyzed FBS, 1.71 µM | 108 | 121 | 46.1
RPMI 5 mM glucose + 10% dialyzed FBS, 5.12 µM | 120 | 125 | 229
RPMI 5 mM glucose + 10% dialyzed FBS, 15.4 µM | 114 | 110 | 158
RPMI 5 mM glucose + 10% dialyzed FBS, 46.1 µM | 120 | 123 | 127

AUC of viability dose-response curve
Settings | NOMO1 [4] | P12-Ichikawa [5] | SEM cells [6]
HPLM + 10% dialyzed FBS | 446 | 468 | 385
RPMI 5 mM glucose + 10% FBS | 445 | 472 | 455
RPMI 5 mM glucose + 10% dialyzed FBS | 468 | 460 | 295

CN(C[C@@H]1COCCO1)[S+]([O-])(=O)NC2=CC3=C(C=C2)\C=C/C4=C(C=C(C=N4)C5=C[N](C)N=C5)C3=O
cell viability [%]
Settings | NOMO1 [1] | P12-Ichikawa [2] | SEM cells [3]
HPLM + 10% dialyzed FBS, 0.000781 µM | 89.6 | 93.4 | 85.5
HPLM + 10% dialyzed FBS, 0.00234 µM | 107 | 99.6 | 93.9
HPLM + 10% dialyzed FBS, 0.00702 µM | 92.5 | 94.1 | 92.6
HPLM + 10% dialyzed FBS, 0.0211 µM | 92.1 | 101 | 86.4
HPLM + 10% dialyzed FBS, 0.0632 µM | 84.5 | 93.7 | 79.5
HPLM + 10% dialyzed FBS, 0.19 µM | 72.2 | 90.1 | 80.8
HPLM + 10% dialyzed FBS, 0.569 µM | 62.2 | 71.8 | 69.9
HPLM + 10% dialyzed FBS, 1.71 µM | 47.1 | 67.4 | 48.8
HPLM + 10% dialyzed FBS, 5.12 µM | 41.1 | 54.7 | 29.8
HPLM + 10% dialyzed FBS, 15.4 µM | 26.2 | 49.8 | 22.4
HPLM + 10% dialyzed FBS, 46.1 µM | 26.6 | 52.4 | 24.8
RPMI 5 mM glucose + 10% FBS, 0.000781 µM | 92.2 | 95.6 | 113
RPMI 5 mM glucose + 10% FBS, 0.00234 µM | 101 | 92.7 | 86.6
RPMI 5 mM glucose + 10% FBS, 0.00702 µM | 90.6 | 103 | 110
RPMI 5 mM glucose + 10% FBS, 0.0211 µM | 114 | 95.2 | 109
RPMI 5 mM glucose + 10% FBS, 0.0632 µM | 93.8 | 102 | 85.5
RPMI 5 mM glucose + 10% FBS, 0.19 µM | 91.2 | 96.1 | 76.3
RPMI 5 mM glucose + 10% FBS, 0.569 µM | 86.9 | 76.6 | 53.1
RPMI 5 mM glucose + 10% FBS, 1.71 µM | 57.1 | 53.5 | 35.2
RPMI 5 mM glucose + 10% FBS, 5.12 µM | 49.5 | 48.8 | 22.2
RPMI 5 mM glucose + 10% FBS, 15.4 µM | 35.2 | 42.2 | 16
RPMI 5 mM glucose + 10% FBS, 46.1 µM | 33.3 | 50 | 16.4
RPMI 5 mM glucose + 10% dialyzed FBS, 0.000781 µM | 84.5 | 94 | 78.9
RPMI 5 mM glucose + 10% dialyzed FBS, 0.00234 µM | 104 | 97.1 | 96.4
RPMI 5 mM glucose + 10% dialyzed FBS, 0.00702 µM | 98.4 | 88.7 | 91.2
RPMI 5 mM glucose + 10% dialyzed FBS, 0.0211 µM | 87.4 | 91.2 | 86.8
RPMI 5 mM glucose + 10% dialyzed FBS, 0.0632 µM | 99.2 | 105 | 85.2
RPMI 5 mM glucose + 10% dialyzed FBS, 0.19 µM | 91.9 | 88.9 | 66.3
RPMI 5 mM glucose + 10% dialyzed FBS, 0.569 µM | 73.7 | 75.3 | 60.8
RPMI 5 mM glucose + 10% dialyzed FBS, 1.71 µM | 52.1 | 53.6 | 38.5
RPMI 5 mM glucose + 10% dialyzed FBS, 5.12 µM | 48.9 | 43.3 | 24.5
RPMI 5 mM glucose + 10% dialyzed FBS, 15.4 µM | 39.8 | 37.6 | 17.3
RPMI 5 mM glucose + 10% dialyzed FBS, 46.1 µM | 31.6 | 41.5 | 18.3

AUC of viability dose-response curve
Settings | NOMO1 [4] | P12-Ichikawa [5] | SEM cells [6]
HPLM + 10% dialyzed FBS | 324 | 379 | 314
RPMI 5 mM glucose + 10% FBS | 371 | 374 | 301
RPMI 5 mM glucose + 10% dialyzed FBS | 355 | 357 | 292

Cc1ccc(C(=O)Nc2ccc([S+](=O)([O-])O)c3cc([S+](=O)([O-])O)cc([S+](=O)([O-])O)c23)cc1NC(=O)c1cccc(NC(=O)Nc2cccc(C(=O)Nc3cc(C(=O)Nc4ccc([S+](=O)([O-])O)c5cc([S+](=O)([O-])O)cc([S+](=O)([O-])O)c45)ccc3C)c2)c1
cell viability [%]
Settings | NOMO1 [1] | P12-Ichikawa [2] | SEM cells [3]
HPLM + 10% dialyzed FBS, 0.000781 µM | 95.4 | 97.5 | 96.8
HPLM + 10% dialyzed FBS, 0.00234 µM | 93.6 | 104 | 105
HPLM + 10% dialyzed FBS, 0.00702 µM | 96.9 | 92.8 | 96.2
HPLM + 10% dialyzed FBS, 0.0211 µM | 90.1 | 95.4 | 100
HPLM + 10% dialyzed FBS, 0.0632 µM | 91.5 | 96.4 | 115
HPLM + 10% dialyzed FBS, 0.19 µM | 71.9 | 87.2 | 91.4
HPLM + 10% dialyzed FBS, 0.569 µM | 69.3 | 77.3 | 101
HPLM + 10% dialyzed FBS, 1.71 µM | 73.6 | 81.5 | 93.8
HPLM + 10% dialyzed FBS, 5.12 µM | 40.8 | 57.1 | 68.5
HPLM + 10% dialyzed FBS, 15.4 µM | 37.1 | 55.2 | 44.4
HPLM + 10% dialyzed FBS, 46.1 µM | 38.4 | 47 | 33.1
RPMI 5 mM glucose + 10% FBS, 0.000781 µM | 89.4 | 97.3 | 109
RPMI 5 mM glucose + 10% FBS, 0.00234 µM | 83.9 | 89.2 | 128
RPMI 5 mM glucose + 10% FBS, 0.00702 µM | 107 | 99.6 | 120
RPMI 5 mM glucose + 10% FBS, 0.0211 µM | 89.7 | 102 | 121
RPMI 5 mM glucose + 10% FBS, 0.0632 µM | 90.4 | 88.6 | 113
RPMI 5 mM glucose + 10% FBS, 0.19 µM | 85.9 | 82.2 | 112
RPMI 5 mM glucose + 10% FBS, 0.569 µM | 84.7 | 92.4 | 100
RPMI 5 mM glucose + 10% FBS, 1.71 µM | 90.4 | 81.1 | 115
RPMI 5 mM glucose + 10% FBS, 5.12 µM | 75.6 | 60.5 | 52.7
RPMI 5 mM glucose + 10% FBS, 15.4 µM | 69 | 53.4 | 21.2
RPMI 5 mM glucose + 10% FBS, 46.1 µM | 62.2 | 44.3 | 22.7
RPMI 5 mM glucose + 10% dialyzed FBS, 0.000781 µM | 91.9 | 99.1 | 85
RPMI 5 mM glucose + 10% dialyzed FBS, 0.00234 µM | 91 | 94.9 | 97.2
RPMI 5 mM glucose + 10% dialyzed FBS, 0.00702 µM | 93.1 | 93.5 | 100
RPMI 5 mM glucose + 10% dialyzed FBS, 0.0211 µM | 101 | 94 | 88.6
RPMI 5 mM glucose + 10% dialyzed FBS, 0.0632 µM | 76.9 | 89.3 | 98.4
RPMI 5 mM glucose + 10% dialyzed FBS, 0.19 µM | 85.8 | 88.8 | 86
RPMI 5 mM glucose + 10% dialyzed FBS, 0.569 µM | 87.6 | 80 | 94.9
RPMI 5 mM glucose + 10% dialyzed FBS, 1.71 µM | 88.9 | 75.9 | 86.5
RPMI 5 mM glucose + 10% dialyzed FBS, 5.12 µM | 76.9 | 56.4 | 55.1
RPMI 5 mM glucose + 10% dialyzed FBS, 15.4 µM | 56.3 | 54 | 23.9
RPMI 5 mM glucose + 10% dialyzed FBS, 46.1 µM | 52.5 | 42.9 | 23.7

AUC of viability dose-response curve
Settings | NOMO1 [4] | P12-Ichikawa [5] | SEM cells [6]
HPLM + 10% dialyzed FBS | 350 | 390 | 414
RPMI 5 mM glucose + 10% FBS | 406 | 392 | 393
RPMI 5 mM glucose + 10% dialyzed FBS | 396 | 381 | 373
